Results: patent publication US11046680B1, “Heteroaryl-substituted triazoles as APJ receptor agonists” (priority 2016, dated 2021)

The molecules below were run against human APJ receptor (Homo sapiens (Human), UniProt P35414) (assay: biochemical). Details: [35S]GTPγS binding, CHO membranes expressing human APJ receptor; read-out: Activity hAPJ SPA EC50 IP.
human APJ receptor, sequence (P35414 whole entry): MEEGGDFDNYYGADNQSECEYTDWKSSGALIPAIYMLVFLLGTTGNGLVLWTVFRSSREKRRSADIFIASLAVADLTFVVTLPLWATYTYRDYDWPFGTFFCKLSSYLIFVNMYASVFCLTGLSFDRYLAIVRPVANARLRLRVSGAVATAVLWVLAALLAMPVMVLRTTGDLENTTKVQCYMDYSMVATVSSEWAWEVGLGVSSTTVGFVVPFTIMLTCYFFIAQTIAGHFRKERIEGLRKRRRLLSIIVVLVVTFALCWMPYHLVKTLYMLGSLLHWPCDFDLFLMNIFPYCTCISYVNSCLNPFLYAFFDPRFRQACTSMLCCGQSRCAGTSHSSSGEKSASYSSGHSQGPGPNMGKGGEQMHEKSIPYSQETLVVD
Format: biochemical
Summary of the method: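 GTPγS binding on membranes from CHO cells stably expressing FLAG-tagged human APJ, with optimized GDP, MgCl2 and NaCl; incubated 90 min at RT before imaging read-out.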
In the case of COc1cccc(OC)c1-n1c(NS(=O)(=O)CC[C@@H](O)C2CCCC2)nnc1-c1nc(C)cs1 (mixture of isomers) [Example 98.0, (R)-3-Cyclopentyl-N-(4-(2,6-dimethoxyphenyl)-5-(4-methylthiazol-2-yl)-4H-1,2,4-triazol-3-yl)-3-hydroxypropane-1-sulfonamide and (S)-3-cyclopentyl-N-(4-(2,6-dimethoxyphenyl)-5-(4-methylthiazol-2-yl)-4H-1,2,4-triazol-3-yl)-3-hydroxypropane-1-sulfonamide], the EC50 is reported as 5.3 nM.
O=S(=O)(Cc1ccc(Cl)cc1)Nc1nnc(-c2cccs2)n1-c1ccccc1C(F)(F)F [Example 356.0, 1-(4-Chlorophenyl)-N-(5-(thiophen-2-yl)-4-(2-(trifluoromethyl)phenyl)-4H-1,2,4-triazol-3-yl)methanesulfonamide] showed an EC50 of over 12500 nM.
Work on “(R)-N-(4-(2,6-dimethoxyphenyl)-5-(1,5-dimethyl-1H-pyrazol-3-yl)-4H-1,2,4-triazol-3-yl)-1-(5-fluoropyrimidin-2-yl)propane-2-sulfonamide and (S)-N-(4-(2,6-dimethoxyphenyl)-5-(1,5-dimethyl-1H-pyrazol-3-yl)-4H-1,2,4-triazol-3-yl)-1-(5-fluoropyrimidin-2-yl)propane-2-sulfonamide [Example 46.0]” yielded an EC50 of 31 nM.
COc1ncnc(OC)c1-n1c(NS(=O)(=O)[C@@H](C)[C@H](C)c2ccc(Cl)cn2)nnc1-c1ccn(C)n1 [Example 534.0, (2S,3R)-3-(5-chloro-2-pyridinyl)-N-(4-(4,6-dimethoxy-5-pyrimidinyl)-5-(1-methyl-1H-pyrazol-3-yl)-4H-1,2,4-triazol-3-yl)-2-butanesulfonamide] showed an EC50 of 0.93 nM.
COc1cccc(OC)c1-n1c(NS(=O)(=O)[C@H](C)[C@@H](C)c2ncc(Cl)cn2)nnc1-c1ccn(C)n1 [Example 443.0, (2R,3S)-3-(5-chloropyrimidin-2-yl)-N-(4-(2,6-dimethoxyphenyl)-5-(1-methyl-1H-pyrazol-3-yl)-4H-1,2,4-triazol-3-yl)butane-2-sulfonamide] showed an EC50 of 6.4 nM.
COc1cccc(OC)c1-n1c(NS(=O)(=O)[C@H](C)Cc2ncc(F)cn2)nnc1-c1cc(C)no1 (single isomer, unassigned) [Example 63.0, (R)-N-(4-(2,6-dimethoxyphenyl)-5-(3-methylisoxazol-5-yl)-4H-1,2,4-triazol-3-yl)-1-(5-fluoropyrimidin-2-yl)propane-2-sulfonamide or (R)-N-(4-(2,6-dimethoxyphenyl)-5-(3-methylisoxazol-5-yl)-4H-1,2,4-triazol-3-yl)-1-(5-fluoropyrimidin-2-yl)propane-2-sulfonamide] showed an EC50 of 85 nM.
COc1cccc(OC)c1-n1c(NS(=O)(=O)[C@@H](C)Cc2ncc(F)cn2)nnc1-c1cccnn1 (single isomer, unassigned) [Example 32.0, (2S)-N-(4-(2,6-dimethoxyphenyl)-5-(3-pyridazinyl)-4H-1,2,4-triazol-3-yl)-1-(5-fluoro-2-pyrimidinyl)-2-propanesulfonamide or (2R)-N-(4-(2,6-dimethoxyphenyl)-5-(3-pyridazinyl)-4H-1,2,4-triazol-3-yl)-1-(5-fluoro-2-pyrimidinyl)-2-propanesulfonamide] gave an EC50 of 17 nM.
Molecule COc1cccc(OC)c1-n1c(NS(=O)(=O)[C@H](C)[C@@H](C)c2cnc(C)cn2)nnc1-c1ccn(C)n1 [Example 281.0, (2R,3S)-N-(4-(2,6-dimethoxyphenyl)-5-(1-methyl-1H-pyrazol-3-yl)-4H-1,2,4-triazol-3-yl)-3-(5-methyl-2-pyrazinyl)-2-butanesulfonamide] has an EC50 of 84 nM.
Work on “(1R,2S)-N-(4-(2,6-dimethoxyphenyl)-5-(1-methyl-1H-pyrazol-3-yl)-4H-1,2,4-triazol-3-yl)-1-(5-fluoro-2-pyridinyl)-1-hydroxy-2-propanesulfonamide and (1S,2R)-N-(4-(2,6-dimethoxyphenyl)-5-(1-methyl-1H-pyrazol-3-yl)-4H-1,2,4-triazol-3-yl)-1-(5-fluoro-2-pyridinyl)-1-hydroxy-2-propanesulfonamide [Example 25.0]” yielded an EC50 of 15 nM.
For COCc1nc(-c2nnc(NS(=O)(=O)CCc3ccc(Cl)cc3)n2-c2c(OC)cccc2OC)cs1 [Example 146.0], the EC50 was 97 nM.
Molecule COc1ccc2[nH]c(-c3nnc(NS(=O)(=O)[C@@H](C)[C@H](OC)c4ncc(C)cn4)n3-c3c(OC)cccc3OC)cc2c1 [Example 336.0, (1R,2S)-N-(4-(2,6-dimethoxyphenyl)-5-(5-methoxy-1H-indo1-2-yl)-4H-1,2,4-triazol-3-yl)-1-methoxy-1-(5-methyl-2-pyrimidinyl)-2-propanesulfonamide] has an EC50 of 310 nM.
COc1cnc([C@@H](C)[C@H](C)S(=O)(=O)Nc2nnc(-c3ccn(C)n3)n2-c2c(OC)ncnc2OC)nc1 [Example 296.0, (2S,3R)-N-(4-(4,6-dimethoxy-5-pyrimidinyl)-5-(1-methyl-1H-pyrazol-3-yl)-4H-1,2,4-triazol-3-yl)-3-(5-methoxy-2-pyrimidinyl)-2-butanesulfonamide] was tested, and the EC50 was 2.7 nM.
Molecule COc1cccc(OC)c1-n1c(NS(=O)(=O)[C@@H](C)[C@H](O)c2cnc(C)cn2)nnc1-c1cc(C)[nH]n1 [Example 347.0, (1R,2S)-N-(4-(2,6-Dimethoxyphenyl)-5-(5-methyl-1H-pyrazol-3-yl)-4H-1,2,4-triazol-3-yl)-1-hydroxy-1-(5-methyl-2-pyrazinyl)-2-propanesulfonamide] has an EC50 of 3.8 nM.
Molecule CO[C@H](c1ncc(Cl)cn1)[C@H](C)S(=O)(=O)Nc1nnc(-c2n[nH]c3c2CCC3)n1C1(C)CCC1 [Example 492.0, (1R,2S)-1-(5-chloropyrimidin-2-yl)-1-methoxy-N-(4-(1-methylcyclobutyl)-5-(1,4,5,6-tetrahydrocyclopenta[c]pyrazol-3-yl)-4H-1,2,4-triazol-3-yl)propane-2-sulfonamide] has an EC50 of 34 nM.
COc1cccc(OC)c1-n1c(NS(=O)(=O)[C@@H](C)[C@H](OC)c2ncc(C)cn2)nnc1-c1cnccn1 [Example 337.0, (1R,2S)-N-(4-(2,6-dimethoxyphenyl)-5-(2-pyrazinyl)-4H-1,2,4-triazol-3-yl)-1-methoxy-1-(5-methyl-2-pyrimidinyl)-2-propanesulfonamide] gave an EC50 of 6.8 nM.
“(1R,2S)-N-(4-(2,6-dimethoxyphenyl)-5-(1-methyl-1H-pyrazol-3-yl)-4H-1,2,4-triazol-3-yl)-1-(5-fluoro-2-pyridinyl)-1-hydroxy-2-propanesulfonamide and (1S,2R)-N-(4-(2,6-dimethoxyphenyl)-5-(1-methyl-1H-pyrazol-3-yl)-4H-1,2,4-triazol-3-yl)-1-(5-fluoro-2-pyridinyl)-1-hydroxy-2-propanesulfonamide [Example 24.0]” showed an EC50 of 0.18 nM.
Molecule COc1cccc(OC)c1-n1c(NS(=O)(=O)[C@@H](C)[C@H](O)c2cn3ccccc3n2)nnc1-c1ccn(C)n1 (single isomer, unassigned) [Example 350.0, (1R,2S)-N-(4-(2,6-Dimethoxyphenyl)-5-(1-methyl-1H-pyrazol-3-yl)-4H-1,2,4-triazol-3-yl)-1-hydroxy-1-imidazo[1,2-a]pyridin-2-yl-2-propanesulfonamide or (1S,2R)-N-(4-(2,6-dimethoxyphenyl)-5-(1-methyl-1H-pyrazol-3-yl)-4H-1,2,4-triazol-3-yl)-1-hydroxy-1-imidazo[1,2-a]pyridin-2-yl-2-propanesulfonamide] has an EC50 of 6.1 nM.
With COc1ccc(S(C)(=O)=O)cc1-n1c(NS(=O)(=O)CCc2ccc(F)cc2)nnc1-c1cccs1 [Example 358.0, 2-(4-Fluorophenyl)-N-(4-(2-methoxy-5-(methylsulfonyl)phenyl)-5-(thiophen-2-yl)-4H-1,2,4-triazol-3-yl)ethanesulfonamide] the EC50 was 34 nM.
COc1cccc(OC)c1-n1c(NS(=O)(=O)[C@@H]2C[C@@H](O)CN(c3ncc(F)cn3)C2)nnc1-c1nc(C)cs1 (single isomer, unassigned) [Example 257.0, (3R,5R)-N-(4-(2,6-dimethoxyphenyl)-5-(4-methyl-1,3-thiazol-2-yl)-4H-1,2,4-triazol-3-yl)-1-(5-fluoro-2-pyrimidinyl)-5-hydroxy-3-piperidinesulfonamide or (3S,5S)-N-(4-(2,6-dimethoxyphenyl)-5-(4-methyl-1,3-thiazol-2-yl)-4H-1,2,4-triazol-3-yl)-1-(5-fluoro-2-pyrimidinyl)-5-hydroxy-3-piperidinesulfonamide] was tested, and the EC50 was 3.9 nM.
COc1cccc(OC)c1-n1c(NS(=O)(=O)[C@@H](C)[C@H](C)c2ncc(F)cn2)nnc1-c1cc2n(n1)CCC2 [Example 208.0, (2S,3R)-N-(5-(5,6-dihydro-4H-pyrrolo[1,2-b]pyrazol-2-yl)-4-(2,6-dimethoxyphenyl)-4H-1,2,4-triazol-3-yl)-3-(5-fluoro-2-pyrimidinyl)-2-butanesulfonamide] showed an EC50 of 2.5 nM.
For Cc1cnc([C@H](OC(C)C)[C@H](C)S(=O)(=O)Nc2nnc(-c3ccn(C)n3)n2-c2c(F)cccc2F)nc1 [Example 227.0, (1S,2S)-N-(4-(2,6-difluorophenyl)-5-(1-methyl-1H-pyrazol-3-yl)-4H-1,2,4-triazol-3-yl)-1-(1-methylethoxy)-1-(5-methyl-2-pyrimidinyl)-2-propanesulfonamide], the EC50 was 1.6 nM.
With COc1cnc([C@@H](C)[C@H](C)S(=O)(=O)Nc2nnc(-c3cnn4c3CCC4)n2-c2c(OC)cccc2OC)nc1 [Example 485.0, (2S,3R)-N-(5-(5,6-dihydro-4H-pyrrolo[1,2-b]pyrazol-3-yl)-4-(2,6-dimethoxyphenyl)-4H-1,2,4-triazol-3-yl)-3-(5-methoxypyrimidin-2-yl)butane-2-sulfonamide] the EC50 was 0.3 nM.
In the case of COc1cccc(OC)c1-n1c(NS(=O)(=O)[C@@H](C)[C@H](OC)c2ncc(Cl)cn2)nnc1-c1cc2n(n1)CCC2 [Example 210.0, (1R,2S)-1-(5-chloro-2-pyrimidinyl)-N-(5-(5,6-dihydro-4H-pyrrolo[1,2-b]pyrazol-2-yl)-4-(2,6-dimethoxyphenyl)-4H-1,2,4-triazol-3-yl)-1-methoxy-2-propanesulfonamide], the EC50 is reported as 0.83 nM.
CCc1csc(-c2nnc(NS(=O)(=O)CCc3ccc(Cl)cc3)n2-c2c(OC)cccc2OC)n1 [Example 152.0, 2-(4-chlorophenyl)-N-(4-(2,6-dimethoxyphenyl)-5-(4-ethylthiazol-2-yl)-4H-1,2,4-triazol-3-yl)ethanesulfonamide] gave an EC50 of over 12500 nM.
